US6737383B1, “Herbicidal oxadiazolidines” (priority 1999, dated 2004)

Columns and labels:
bedstraw = experiment: Test B pre/postemergence bedstraw; type: in vivo, Galium aparine
Method in brief: (§1)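 Response is a visual 0-to-10 score relative to untreated plants, where 0 means no effect and 10 means complete control, taken twelve to sixteen days after application. Treatments went onto soil at planting and onto foliage of 1- to 4-leaf plants, using a surfactant-containing non-phytotoxic solvent.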

blackgrass = experiment: Test B pre/postemergence blackgrass; type: in vivo, Alopecurus myosuroides
Method in brief: as §1

surinam grass = experiment: Test B pre/postemergence surinam grass; type: in vivo, Brachiaria decumbens
Method in brief: as §1

cocklebur = experiment: Test B pre/postemergence cocklebur; type: in vivo, Xanthium strumarium
Method in brief: as §1

corn = experiment: Test B pre/postemergence corn; type: in vivo, Zea mays
Method in brief: as §1

crabgrass = experiment: Test B pre/postemergence crabgrass; type: in vivo, Digitaria sanguinalis
Method in brief: as §1

morningglory = experiment: Test B pre/postemergence morningglory; type: in vivo, Ipomoea hederacea
Method in brief: as §1

pigweed = experiment: Test B pre/postemergence pigweed; type: in vivo, Amaranthus retroflexus
Method in brief: as §1

rape = experiment: Test B pre/postemergence rape; type: in vivo, Brassica napus
Method in brief: as §1

sugar beet = experiment: Test B pre/postemergence sugar beet; type: in vivo, Beta vulgaris
Method in brief: as §1

velvetleaf = experiment: Test B pre/postemergence velvetleaf; type: in vivo, Abutilon theophrasti
Method in brief: as §1

wheat = experiment: Test B pre/postemergence wheat; type: in vivo, Triticum aestivum
Method in brief: as §1

wild oat = experiment: Test B pre/postemergence wild oat; type: in vivo, Avena fatua
Method in brief: as §1

purple nutsedge = experiment: Test B pre/postemergence purple nutsedge; type: in vivo, Cyperus rotundus
Method in brief: as §1

smallflower flatsedge = experiment: Test B flood test smallflower flatsedge; type: in vivo, Cyperus difformis; conditions: for S. Flatsedge plant response rating: scale of 0 to 10 where 0 is no effect and 10 is complete control
Method in brief: (§2)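 Each value is a visual injury score relative to controls, with 10 meaning complete control and 0 no effect. Evaluation took place twelve to sixteen days after the 2-leaf-stage plants were treated and kept in the greenhouse.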

duck salad = experiment: Test B flood test duck salad; type: in vivo, Heteranthera limosa
Method in brief: as §2

[1] = Postemergence, Rate 125 g/ha, scale of 0 to 10 where 0 is no effect and 10 is complete control
[2] = Preemergence, Rate 62 g/ha, scale 0 to 10 (0 no effect, 10 complete control)
[3] = Preemergence, Rate 125 g/ha, 0 is no effect, 10 is complete control
[4] = Preemergence, Rate 250 g/ha, scale 0 to 10, 0 is no effect, 10 is complete control
[5] = Preemergence, Rate 500 g/ha, scale 0 to 10 (0 no effect, 10 complete control)
[6] = Rate 62 g/ha, Postemergence, scale of 0 to 10 where 0 is no effect and 10 is complete control
[7] = Rate 250 g/ha, Postemergence, scale 0 to 10, 0 is no effect, 10 is complete control
[8] = Rate 500 g/ha, Postemergence, scale 0 to 10
[9] = Rate 250 g/ha, Postemergence (flood test), scale 0 to 10, 0 is no effect, 10 is complete control

Structure (SMILES): CC(C)N(C(=O)n1oc(=O)n(C)c1=O)c1ccc(Cl)cc1 [Compound 137]
- Bedstraw plant response rating (bedstraw; [1]): 8
- Bedstraw plant response rating (bedstraw; [2]): 4
- Bedstraw plant response rating (0 to 10 scale) (bedstraw; [3]): 7
- Bedstraw plant response rating (bedstraw; [4]): 7
- Bedstraw plant response rating (bedstraw; [5]): 10
- Bedstraw plant response rating (bedstraw; [6]): 4
- Plant response rating, Bedstraw (bedstraw; [7]): 8
- Blackgrass plant response rating (blackgrass; [1]): 6
- Blackgrass plant response rating (blackgrass; [2]): 7
- Blackgrass plant response rating (0 to 10 scale) (blackgrass; [3]): 9
- Blackgrass plant response rating (blackgrass; [4]): 9
- Blackgrass plant response rating (blackgrass; [5]): 10
- Blackgrass plant response rating (blackgrass; [6]): 5
- Plant response rating, Blackgrass (blackgrass; [7]): 8
- Blackgrass plant response rating (blackgrass; [8]): 8
- B. signalgrass plant response rating (surinam grass; [1]): 4
- B. signalgrass plant response rating (surinam grass; [2]): 3
- B. signalgrass plant response rating (0 to 10 scale) (surinam grass; [3]): 5
- B. signalgrass plant response rating (surinam grass; [4]): 7
- B. signalgrass plant response rating (surinam grass; [5]): 9
- B. signalgrass plant response rating (surinam grass; [6]): 0
- Plant response rating, B. signalgrass (surinam grass; [7]): 5
- B. signalgrass plant response rating (surinam grass; Rate 500 g/ha, Postemergence, scale of 0 to 10 where 0 is no effect and 10 is complete control): 8
- Cocklebur plant response rating (cocklebur; [1]): 0
- Cocklebur plant response rating (cocklebur; [2]): 0
- Cocklebur plant response rating (0 to 10 scale) (cocklebur; [3]): 0
- Cocklebur plant response rating (cocklebur; [4]): 0
- Cocklebur plant response rating (cocklebur; [5]): 0
- Cocklebur plant response rating (cocklebur; [6]): 0
- Plant response rating, Cocklebur (cocklebur; [7]): 3
- Cocklebur plant response rating (cocklebur; [8]): 4
- Corn plant response rating (corn; [1]): 0
- Corn plant response rating (corn; [2]): 0
- Corn plant response rating (0 to 10 scale) (corn; [3]): 0
- Corn plant response rating (corn; [4]): 0
- Corn plant response rating (corn; [5]): 4
- Corn plant response rating (corn; [6]): 0
- Plant response rating, Corn (corn; [7]): 3
- Corn plant response rating (corn; [8]): 5
- Crabgrass plant response rating (crabgrass; [1]): 8
- Crabgrass plant response rating (crabgrass; [2]): 8
- Crabgrass plant response rating (0 to 10 scale) (crabgrass; [3]): 10
- Crabgrass plant response rating (crabgrass; [4]): 10
- Crabgrass plant response rating (crabgrass; [5]): 10
- Crabgrass plant response rating (crabgrass; [6]): 7
- Plant response rating, Crabgrass (crabgrass; [7]): 9
- Crabgrass plant response rating (crabgrass; [8]): 9
- Morningglory plant response rating (morningglory; [1]): 7
- Morningglory plant response rating (morningglory; [2]): 0
- Morningglory plant response rating (0 to 10 scale) (morningglory; [3]): 0
- Morningglory plant response rating (morningglory; [4]): 0
- Morningglory plant response rating (morningglory; [5]): 1
- Morningglory plant response rating (morningglory; [6]): 7
- Plant response rating, Morningglory (morningglory; [7]): 7
- Morningglory plant response rating (morningglory; [8]): 8
- Redroot pigweed plant response rating (pigweed; [1]): 4
- Redroot pigweed plant response rating (pigweed; [2]): 9
- Redroot pigweed plant response rating (0 to 10 scale) (pigweed; [3]): 10
- Redroot pigweed plant response rating (pigweed; [4]): 10
- Redroot pigweed plant response rating (pigweed; [5]): 10
- Redroot pigweed plant response rating (pigweed; [6]): 2
- Plant response rating, Redroot pigweed (pigweed; [7]): 5
- Redroot pigweed plant response rating (pigweed; [8]): 6
- Rape plant response rating (rape; [2]): 0
- Rape plant response rating (0 to 10 scale) (rape; [3]): 4
- Rape plant response rating (rape; [4]): 10
- Rape plant response rating (rape; [5]): 10
- Rape plant response rating (rape; [6]): 0
- Plant response rating, Rape (rape; [7]): 6
- Rape plant response rating (rape; [8]): 7
- Sugarbeets plant response rating (sugar beet; [1]): 3
- Sugarbeets plant response rating (sugar beet; [2]): 6
- Sugarbeets plant response rating (0 to 10 scale) (sugar beet; [3]): 10
- Sugarbeets plant response rating (sugar beet; [4]): 10
- Sugarbeets plant response rating (sugar beet; [5]): 10
- Sugarbeets plant response rating (sugar beet; [6]): 3
- Plant response rating, Sugarbeets (sugar beet; [7]): 5
- Sugarbeets plant response rating (sugar beet; [8]): 6
- Velvetleaf plant response rating (velvetleaf; [1]): 0
- Velvetleaf plant response rating (velvetleaf; [2]): 3
- Velvetleaf plant response rating (0 to 10 scale) (velvetleaf; [3]): 6
- Velvetleaf plant response rating (velvetleaf; [4]): 7
- Velvetleaf plant response rating (velvetleaf; [5]): 10
- Velvetleaf plant response rating (velvetleaf; [6]): 0
- Plant response rating, Velvetleaf (velvetleaf; [7]): 4
- Velvetleaf plant response rating (velvetleaf; [8]): 5
- Wheat plant response rating (wheat; [1]): 0
- Wheat plant response rating (wheat; [2]): 0
- Wheat plant response rating (0 to 10 scale) (wheat; [3]): 4
- Wheat plant response rating (wheat; [4]): 5
- Wheat plant response rating (wheat; [5]): 5
- Wheat plant response rating (wheat; [6]): 0
- Plant response rating, Wheat (wheat; [7]): 5
- Wheat plant response rating (wheat; [8]): 6
- Wild oats plant response rating (wild oat; [1]): 2
- Wild oats plant response rating (wild oat; [2]): 5
- Wild oats plant response rating (0 to 10 scale) (wild oat; [3]): 8
- Wild oats plant response rating (wild oat; [4]): 9
- Wild oats plant response rating (wild oat; [5]): 10
- Wild oats plant response rating (wild oat; [6]): 1
- Plant response rating, Wild oats (wild oat; [7]): 4
- Wild oats plant response rating (wild oat; [8]): 5
- Nutsedge plant response rating (purple nutsedge; [1]): 0
- Nutsedge plant response rating (purple nutsedge; [2]): 0
- Nutsedge plant response rating (0 to 10 scale) (purple nutsedge; [3]): 0
- Nutsedge plant response rating (purple nutsedge; [4]): 0
- Nutsedge plant response rating (purple nutsedge; [6]): 0
- Plant response rating, Nutsedge (purple nutsedge; [7]): 3
- Nutsedge plant response rating (purple nutsedge; [8]): 4
- S. Flatsedge plant response rating (smallflower flatsedge; Postemergence (flood test species), Rate 125 g/ha): 0
- S. Flatsedge plant response rating (smallflower flatsedge; Rate 62 g/ha, Postemergence section, flood test species): 0
- Plant response rating, S. Flatsedge (smallflower flatsedge; [9]): 0
- Ducksalad plant response rating (duck salad; Postemergence (flood test species), Rate 125 g/ha, scale of 0 to 10 where 0 is no effect and 10 is complete control): 0
- Ducksalad plant response rating (duck salad; Rate 31 g/ha, Postemergence section (flood test species), scale 0 to 10): 0
- Ducksalad plant response rating (duck salad; Rate 62 g/ha, Postemergence section, flood test species, scale of 0 to 10 where 0 is no effect and 10 is complete control): 0
- Plant response rating, Ducksalad (duck salad; [9]): 0
